The values that follow come from patent publication US8916551B2, “Heterocyclic compound and use thereof” (Takeda Pharmaceutical Company Limited, priority 2010, dated 2014).

Data set [1] has as its system methamphetamine (MAP)-induced hyperlocomotion in mice. The data set is described as follows: Inhibition of methamphetamine (MAP)-induced hyperlocomotion. Type of data set: in vivo. Particulars: male ICR mice; compound 10 mg/kg p.o. 60 min before MAP 2 mg/kg s.c.; counts 120 min after MAP. As for the experimental part:
Male ICR mice were supplied by CLEA Japan, Inc (Japan). After arrival to the vivarium, animals were allowed a minimum of 1 week for acclimation. They were housed under a 12:12-h light/dark cycle in a temperature- and humidity-controlled laboratory and allowed food and water ad libitum.
A test compound was suspended in 0.5% methylcellulose in distilled water and orally administered (p.o.). Methamphetamine (Dainippon Sumitomo Pharma Co., Ltd.) was dissolved in saline and subcutaneously administered (s.c.). All drugs were dosed in a volume of 10 mL/kg body weight for mice.
The widely used animal models of psychosis have been the measurement of the extent of hyperlocomotion induced by psychostimulants (e.g., amphetamine, cocaine, methamphetamine, MK-801 and phencyclidine) in rodents (Psychopharmacology 1999, vol. 145: 237-250). 4 compounds (A, B, C, D) were tested for its ability to antagonize MAP-induced hyperlocomotion in mice. Male ICR mice were habituated in the locomotor chambers with infrared sensors (BrainScienceldea Co., Ltd. Japan) to the experiment. After the habituation, animals were treated with either vehicle or the compounds (10 mg/kg, p.o.), and MAP (2 mg/kg, s.c.) was administrated 60 min later. Locomotion activities were measured, and accumulated counts (120 min after administration of MAP) were calculated in each treatment group. All data were represented as means plus the standard errors of the means (n=3-9) and analyzed using Student's t-test with significance set at **P<0.01 and ***P<0.001 or Welch's t-test with significance set at ^$P<0.05, ^$$P<0.01 and ^$$$P<0.001.

Data set [2] has as its target T1, AMPA receptor (human GluR1 flip/stargazin expressed in CHO-K1 cells) (Homo sapiens, UniProt P42261).
T1 construct: expressed in transfected cells; host or cells: CHO-K1
The data set is described as follows: AMPA receptor function enhancing activity using calcium influx as index. Particulars: test compound 30 μM with 3 mM glutamic acid, change in fluorescence level in 3 min, 100% = 3 mM glutamic acid + 300 μM cyclothiazide, 0% = 3 mM glutamic acid only. Type of data set: cell-based. The essentials:
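CHO-K1 clone stably co-expressing human GluR1 flip and stargazin, loaded with Calcium 4 dye plus probenecid. Compound at 30 μM was added with glutamate (3 mM final) and fluorescence change followed over 3 min. Activity is expressed as % of the 3 mM glutamate plus 300 μM cyclothiazide response, with glutamate alone as 0%.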

As a reminder, the melting point is the temperature of the solid-liquid transition.

T1 sequence (P42261 19-906 isoform P42261-2 limits assumed): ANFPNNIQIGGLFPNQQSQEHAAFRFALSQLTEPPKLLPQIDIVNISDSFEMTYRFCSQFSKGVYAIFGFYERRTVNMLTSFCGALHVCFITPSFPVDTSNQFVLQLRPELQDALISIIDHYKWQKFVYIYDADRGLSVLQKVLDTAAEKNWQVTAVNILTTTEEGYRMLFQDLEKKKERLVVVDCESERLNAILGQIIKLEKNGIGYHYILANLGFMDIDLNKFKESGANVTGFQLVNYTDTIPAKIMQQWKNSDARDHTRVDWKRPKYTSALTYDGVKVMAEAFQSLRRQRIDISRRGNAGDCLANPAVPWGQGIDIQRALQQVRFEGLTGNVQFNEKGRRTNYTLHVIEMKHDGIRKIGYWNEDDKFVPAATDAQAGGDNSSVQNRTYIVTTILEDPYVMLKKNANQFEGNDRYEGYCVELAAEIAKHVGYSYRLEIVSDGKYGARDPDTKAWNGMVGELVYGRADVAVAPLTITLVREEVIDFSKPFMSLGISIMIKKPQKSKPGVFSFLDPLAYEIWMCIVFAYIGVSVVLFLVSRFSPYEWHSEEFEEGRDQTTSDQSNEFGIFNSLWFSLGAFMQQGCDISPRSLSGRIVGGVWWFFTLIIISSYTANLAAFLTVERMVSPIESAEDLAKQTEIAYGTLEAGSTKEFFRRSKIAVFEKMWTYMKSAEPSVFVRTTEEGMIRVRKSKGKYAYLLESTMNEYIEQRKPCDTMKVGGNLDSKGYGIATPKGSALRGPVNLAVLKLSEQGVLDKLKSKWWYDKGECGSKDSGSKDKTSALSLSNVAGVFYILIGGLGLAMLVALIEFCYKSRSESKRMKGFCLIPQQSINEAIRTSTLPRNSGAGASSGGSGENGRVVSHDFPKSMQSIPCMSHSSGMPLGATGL
T1 sequence (Q9Y698 whole entry partner): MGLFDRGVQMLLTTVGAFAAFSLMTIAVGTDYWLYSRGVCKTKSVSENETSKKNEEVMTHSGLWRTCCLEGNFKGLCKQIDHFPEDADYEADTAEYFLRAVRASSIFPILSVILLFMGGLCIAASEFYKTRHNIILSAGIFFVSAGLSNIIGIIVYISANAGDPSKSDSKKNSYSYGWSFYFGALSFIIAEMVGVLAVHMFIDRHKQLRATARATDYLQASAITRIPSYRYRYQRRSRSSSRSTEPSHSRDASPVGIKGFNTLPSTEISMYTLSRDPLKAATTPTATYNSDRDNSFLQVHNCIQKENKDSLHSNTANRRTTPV

`O=S1(=O)CCN2C=CC=C(c3ccc(Oc4ccccc4)cc3)C2=N1` [A, 9-(4-phenoxyphenyl)-3,4-dihydropyrido[2,1-c][1,2,4]thiadiazine 2,2-dioxide]: the “inhibition of MAP-induced hyperlocomotion (accumulated locomotion counts 0-120 min)” value (from here on “inhibition”) in data set [1] is listed as “significant inhibition”.

In the case of `Cc1ccc(Oc2ccc(C3=CC=CN4CCS(=O)(=O)N=C34)cc2)cc1` [B, 9-[4-(4-methylphenoxy)phenyl]-3,4-dihydropyrido[2,1-c][1,2,4]thiadiazine 2,2-dioxide], the “inhibition” value in data set [1] was “significant inhibition”.

`CC1=CN2CCS(=O)(=O)N=C2C(c2ccc(OC3CCCCC3)cc2)=N1` [C, 9-[4-(cyclohexyloxy)phenyl]-7-methyl-3,4-dihydropyrazino[2,1-c][1,2,4]thiadiazine 2,2-dioxide]: the “inhibition” value in data set [1] is “significant inhibition”.

`O=S1(=O)CCN2C=CC=C(c3ccc(OC4CCCCC4)cc3)C2=N1` [D, 9-[4-(cyclohexyloxy)phenyl]-3,4-dihydropyrido[2,1-c][1,2,4]thiadiazine 2,2-dioxide]: the “inhibition” value in data set [1] is “significant inhibition”.

With `COC1=C(c2ccc(Oc3ccccc3)cc2)C2=NS(=O)(=O)CCN2C=C1` [Example 204, 8-methoxy-9-(4-phenoxyphenyl)-3,4-dihydropyrido[2,1-c][1,2,4]thiadiazine 2,2-dioxide], the melting point fell in the range of 269 to 270 °C. For the same compound, in data set [2], the “activity (%)” value stood at 70%.

`O=S1(=O)CCN2C=CC(Cl)=C(c3ccc(Oc4ccccc4)cc3)C2=N1` [Example 205, 8-chloro-9-(4-phenoxyphenyl)-3,4-dihydropyrido[2,1-c][1,2,4]thiadiazine 2,2-dioxide] displayed a melting point of 283 to 284 °C. Besides, the “activity (%)” value in data set [2] came to 67%.

With `O=S1(=O)CCN2C=C(F)C=C(c3ccc(Oc4ccccc4)cc3)C2=N1` [Example 206, 7-fluoro-9-(4-phenoxyphenyl)-3,4-dihydropyrido[2,1-c][1,2,4]thiadiazine 2,2-dioxide], the melting point is 91.9 to 92 °C. Moreover, the “activity (%)” value in data set [2] stood at 84%.

In turn, `CC1=CN2CCS(=O)(=O)N=C2C(c2ccc(Oc3ccccc3)cc2)=N1` [Example 207, 7-methyl-9-(4-phenoxyphenyl)-3,4-dihydropyrazino[2,1-c][1,2,4]thiadiazine 2,2-dioxide] had a melting point of 92 to 92.5 °C. For the same compound, the “activity (%)” value in data set [2] is on record as 78%.

Compound `CC(C)Oc1ccc(C2=CC=CN3CCS(=O)(=O)N=C23)cc1Cl` [Example 208, 9-[3-chloro-4-(1-methylethoxy)phenyl]-3,4-dihydropyrido[2,1-c][1,2,4]thiadiazine 2,2-dioxide] displayed a melting point of 239 to 240 °C. The “activity (%)” value in data set [2] came to 79%.

Turning to `Cc1ccc(Oc2ccc([C@@H]3CCCN4CCS(=O)(=O)N=C34)cc2)cc1C` [Example 216, (9S)-9-[4-(3,4-dimethylphenoxy)phenyl]-3,4,6,7,8,9-hexahydropyrido[2,1-c][1,2,4]thiadiazine 2,2-dioxide], the melting point lay within 170 to 171 °C. The “activity (%)” value in data set [2] stood at 71%.

The compound `CCc1ccc(Oc2ccc([C@@H]3CCCN4CCS(=O)(=O)N=C34)cc2)cc1` [Example 218, (9S)-9-[4-(4-ethylphenoxy)phenyl]-3,4,6,7,8,9-hexahydropyrido[2,1-c][1,2,4]thiadiazine 2,2-dioxide] returned a melting point of 156 to 157 °C. Besides, in data set [2], the “activity (%)” value was 74%.

`COc1cccc(Oc2ccc([C@@H]3CCCN4CCS(=O)(=O)N=C34)cc2)c1` [Example 219, (9S)-9-[4-(3-methoxyphenoxy)phenyl]-3,4,6,7,8,9-hexahydropyrido[2,1-c][1,2,4]thiadiazine 2,2-dioxide] came in with a melting point of 139 to 140 °C. In data set [2], the “activity (%)” value was determined as 83%.

Compound `O=S1(=O)CCN2CCC[C@@H](c3ccc(Oc4cc(F)c(F)c(F)c4)cc3)C2=N1` [Example 227, (9S)-9-[4-(3,4,5-trifluorophenoxy)phenyl]-3,4,6,7,8,9-hexahydropyrido[2,1-c][1,2,4]thiadiazine 2,2-dioxide] came in with a melting point of 180 to 181 °C. The “activity (%)” value in data set [2] is on record as 68%.

`O=S1(=O)CCN2CCCC(c3ccc(Oc4ccc(C(F)(F)F)cc4)cc3)C2=N1` (centres unmarked) [Example 232, 9-{4-[4-(trifluoromethyl)phenoxy]phenyl}-3,4,6,7,8,9-hexahydropyrido[2,1-c][1,2,4]thiadiazine 2,2-dioxide]: the melting point fell in the range of 174 to 176 °C. Besides, the “activity (%)” value in data set [2] is 60%.

The compound `Cc1cc(F)cc(Oc2ccc([C@@H]3CCCN4CCS(=O)(=O)N=C34)cc2)c1` [Example 236, (9S)-9-[4-(3-fluoro-5-methylphenoxy)phenyl]-3,4,6,7,8,9-hexahydropyrido[2,1-c][1,2,4]thiadiazine 2,2-dioxide] came in with a melting point of 158 to 159 °C. Moreover, the “activity (%)” value in data set [2] amounted to 74%.
